Assay results taken from ChEMBL document CHEMBL5291721, “A preclinical secondary pharmacology resource illuminates target-adverse drug reaction associations of marketed drugs” (Nat Commun, 2023).

Assays:
Adenosine receptor A2a = Adenosine receptor A2a (Homo sapiens, UniProt P29274)
[1] = molecular target: T1, Alpha-2A adrenergic receptor (Homo sapiens, UniProt P08913); format: functional, cell-based
T1 sequence (P08913 whole entry): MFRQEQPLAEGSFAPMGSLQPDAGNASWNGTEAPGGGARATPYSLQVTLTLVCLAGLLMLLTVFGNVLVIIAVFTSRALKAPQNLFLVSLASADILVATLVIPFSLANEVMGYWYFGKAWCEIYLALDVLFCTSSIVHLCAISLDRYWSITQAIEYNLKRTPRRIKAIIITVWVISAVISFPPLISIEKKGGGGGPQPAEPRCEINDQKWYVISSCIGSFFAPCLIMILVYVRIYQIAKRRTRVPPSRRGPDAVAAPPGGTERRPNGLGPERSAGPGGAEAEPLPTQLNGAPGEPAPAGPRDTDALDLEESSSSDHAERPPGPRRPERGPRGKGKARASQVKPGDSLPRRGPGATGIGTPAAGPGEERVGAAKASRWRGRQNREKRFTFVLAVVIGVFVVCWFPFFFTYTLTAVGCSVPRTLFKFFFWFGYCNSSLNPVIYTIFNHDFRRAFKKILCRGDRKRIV

[2] = molecular target: Beta-2 adrenergic receptor (Homo sapiens, UniProt P07550)
B2 bradykinin receptor = molecular target: T2, B2 bradykinin receptor (Homo sapiens, UniProt P30411)
T2 sequence (P30411 whole entry): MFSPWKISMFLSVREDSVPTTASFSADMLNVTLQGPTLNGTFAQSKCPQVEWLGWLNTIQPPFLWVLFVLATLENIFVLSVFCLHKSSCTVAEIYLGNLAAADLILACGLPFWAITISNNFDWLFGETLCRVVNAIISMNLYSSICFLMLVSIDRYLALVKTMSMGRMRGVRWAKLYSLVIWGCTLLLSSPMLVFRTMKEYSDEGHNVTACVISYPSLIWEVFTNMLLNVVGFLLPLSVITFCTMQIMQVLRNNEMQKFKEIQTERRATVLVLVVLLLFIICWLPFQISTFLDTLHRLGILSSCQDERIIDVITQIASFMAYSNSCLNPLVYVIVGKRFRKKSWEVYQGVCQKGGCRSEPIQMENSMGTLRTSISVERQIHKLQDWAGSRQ

Estrogen receptor = molecular target: T3, Estrogen receptor (Homo sapiens, UniProt P03372)
T3 sequence (P03372 whole entry): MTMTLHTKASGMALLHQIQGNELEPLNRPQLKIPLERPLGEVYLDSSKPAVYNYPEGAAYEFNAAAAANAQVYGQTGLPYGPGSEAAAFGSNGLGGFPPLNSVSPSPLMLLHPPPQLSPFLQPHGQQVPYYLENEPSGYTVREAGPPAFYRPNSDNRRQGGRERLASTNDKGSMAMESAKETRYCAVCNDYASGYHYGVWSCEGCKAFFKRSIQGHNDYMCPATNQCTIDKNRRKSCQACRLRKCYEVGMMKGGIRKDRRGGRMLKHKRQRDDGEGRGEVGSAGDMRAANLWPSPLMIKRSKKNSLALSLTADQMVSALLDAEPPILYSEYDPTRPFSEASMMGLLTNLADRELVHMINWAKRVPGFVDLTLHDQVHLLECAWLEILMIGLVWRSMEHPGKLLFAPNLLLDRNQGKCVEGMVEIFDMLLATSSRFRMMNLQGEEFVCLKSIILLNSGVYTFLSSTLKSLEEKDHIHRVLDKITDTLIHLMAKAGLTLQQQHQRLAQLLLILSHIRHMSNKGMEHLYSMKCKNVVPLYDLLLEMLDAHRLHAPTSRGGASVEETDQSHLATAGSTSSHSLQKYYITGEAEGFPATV

Histamine H2 receptor = Histamine H2 receptor (Homo sapiens, UniProt P25021); format: functional, cell-based
[3] = molecular target: T4, 5-hydroxytryptamine receptor 2C (Homo sapiens, UniProt P28335)
T4 sequence (P28335 whole entry): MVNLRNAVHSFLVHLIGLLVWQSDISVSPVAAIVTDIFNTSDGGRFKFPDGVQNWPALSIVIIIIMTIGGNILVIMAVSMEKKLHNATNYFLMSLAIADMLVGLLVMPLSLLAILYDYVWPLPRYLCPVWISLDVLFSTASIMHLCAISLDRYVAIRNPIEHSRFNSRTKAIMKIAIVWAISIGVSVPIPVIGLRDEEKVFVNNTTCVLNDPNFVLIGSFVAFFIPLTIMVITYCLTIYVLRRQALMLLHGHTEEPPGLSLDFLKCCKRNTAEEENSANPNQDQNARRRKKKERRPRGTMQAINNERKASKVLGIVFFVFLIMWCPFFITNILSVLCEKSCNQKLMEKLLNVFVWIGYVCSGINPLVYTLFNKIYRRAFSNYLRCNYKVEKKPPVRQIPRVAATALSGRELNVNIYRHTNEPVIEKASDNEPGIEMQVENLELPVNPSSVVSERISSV

Motilin receptor = Motilin receptor (Homo sapiens, UniProt O43193)
[4] = molecular target: Sodium-dependent dopamine transporter (Homo sapiens, UniProt Q01959)
[5] = molecular target: Sodium-dependent noradrenaline transporter (Homo sapiens, UniProt P23975)
[6] = molecular target: T5, Amine oxidase [flavin-containing] A (Homo sapiens, UniProt P21397); format: functional
T5 sequence (P21397 whole entry): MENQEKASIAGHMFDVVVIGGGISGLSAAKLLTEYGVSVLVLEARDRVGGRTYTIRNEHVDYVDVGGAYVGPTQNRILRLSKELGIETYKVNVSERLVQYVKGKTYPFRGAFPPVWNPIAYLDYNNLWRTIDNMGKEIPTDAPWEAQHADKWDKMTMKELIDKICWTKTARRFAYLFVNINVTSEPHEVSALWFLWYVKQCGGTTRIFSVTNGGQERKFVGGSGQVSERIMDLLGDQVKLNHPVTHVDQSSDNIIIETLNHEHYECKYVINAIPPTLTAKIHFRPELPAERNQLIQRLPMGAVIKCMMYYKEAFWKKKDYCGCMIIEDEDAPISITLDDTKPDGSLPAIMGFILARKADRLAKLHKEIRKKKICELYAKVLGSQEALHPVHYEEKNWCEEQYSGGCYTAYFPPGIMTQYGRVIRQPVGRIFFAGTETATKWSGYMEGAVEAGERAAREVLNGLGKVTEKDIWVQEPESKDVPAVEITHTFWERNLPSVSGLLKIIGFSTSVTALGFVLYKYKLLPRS

[7] = molecular target: cGMP-inhibited 3',5'-cyclic phosphodiesterase 3A (Homo sapiens, UniProt Q14432); format: functional
Also: assay procedure not described here.

Chain of Sodium-dependent dopamine transporter (Q01959 whole entry): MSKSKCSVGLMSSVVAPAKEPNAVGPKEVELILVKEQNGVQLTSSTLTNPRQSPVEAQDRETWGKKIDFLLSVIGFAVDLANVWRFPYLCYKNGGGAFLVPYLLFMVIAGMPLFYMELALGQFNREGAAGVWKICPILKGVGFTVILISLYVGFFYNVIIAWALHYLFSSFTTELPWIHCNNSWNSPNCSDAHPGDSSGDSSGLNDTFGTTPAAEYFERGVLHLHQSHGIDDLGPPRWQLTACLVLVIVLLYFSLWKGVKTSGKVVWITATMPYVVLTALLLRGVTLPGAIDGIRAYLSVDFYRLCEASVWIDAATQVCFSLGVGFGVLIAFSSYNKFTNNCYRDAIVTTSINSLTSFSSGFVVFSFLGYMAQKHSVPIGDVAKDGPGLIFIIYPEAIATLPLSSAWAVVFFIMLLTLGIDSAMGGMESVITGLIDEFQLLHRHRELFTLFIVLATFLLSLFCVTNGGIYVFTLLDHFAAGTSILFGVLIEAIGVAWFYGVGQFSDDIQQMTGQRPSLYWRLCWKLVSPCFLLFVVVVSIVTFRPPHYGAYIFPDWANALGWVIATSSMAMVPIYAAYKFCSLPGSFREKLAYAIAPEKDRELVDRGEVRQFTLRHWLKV
Chain of Adenosine receptor A2a (P29274 whole entry): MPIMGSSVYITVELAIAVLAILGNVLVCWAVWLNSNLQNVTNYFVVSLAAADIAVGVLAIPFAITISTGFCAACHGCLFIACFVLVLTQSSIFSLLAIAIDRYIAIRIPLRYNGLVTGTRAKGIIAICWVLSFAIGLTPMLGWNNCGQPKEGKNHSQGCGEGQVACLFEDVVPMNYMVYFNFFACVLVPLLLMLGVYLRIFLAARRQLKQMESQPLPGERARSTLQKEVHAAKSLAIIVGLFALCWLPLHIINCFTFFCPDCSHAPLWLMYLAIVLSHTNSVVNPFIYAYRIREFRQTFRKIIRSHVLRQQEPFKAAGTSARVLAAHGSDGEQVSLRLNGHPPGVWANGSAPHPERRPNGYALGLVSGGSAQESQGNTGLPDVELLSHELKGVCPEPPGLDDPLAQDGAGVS
Chain of Sodium-dependent noradrenaline transporter (P23975 whole entry): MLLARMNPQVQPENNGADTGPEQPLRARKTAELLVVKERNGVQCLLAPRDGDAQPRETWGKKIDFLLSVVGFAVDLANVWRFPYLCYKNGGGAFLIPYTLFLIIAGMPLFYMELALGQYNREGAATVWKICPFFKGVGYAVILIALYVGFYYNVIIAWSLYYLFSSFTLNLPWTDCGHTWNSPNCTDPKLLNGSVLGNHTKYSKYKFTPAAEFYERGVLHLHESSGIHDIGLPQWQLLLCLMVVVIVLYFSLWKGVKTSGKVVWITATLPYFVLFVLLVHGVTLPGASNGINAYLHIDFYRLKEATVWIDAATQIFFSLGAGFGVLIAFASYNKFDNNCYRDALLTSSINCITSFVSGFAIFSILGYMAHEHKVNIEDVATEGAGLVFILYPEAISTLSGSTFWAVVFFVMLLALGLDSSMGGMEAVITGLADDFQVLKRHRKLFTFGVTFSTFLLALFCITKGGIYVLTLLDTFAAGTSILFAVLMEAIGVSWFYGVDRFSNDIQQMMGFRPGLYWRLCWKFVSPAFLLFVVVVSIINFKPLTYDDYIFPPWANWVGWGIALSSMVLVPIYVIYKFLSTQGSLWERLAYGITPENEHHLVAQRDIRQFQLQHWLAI
Chain of Beta-2 adrenergic receptor (P07550 whole entry): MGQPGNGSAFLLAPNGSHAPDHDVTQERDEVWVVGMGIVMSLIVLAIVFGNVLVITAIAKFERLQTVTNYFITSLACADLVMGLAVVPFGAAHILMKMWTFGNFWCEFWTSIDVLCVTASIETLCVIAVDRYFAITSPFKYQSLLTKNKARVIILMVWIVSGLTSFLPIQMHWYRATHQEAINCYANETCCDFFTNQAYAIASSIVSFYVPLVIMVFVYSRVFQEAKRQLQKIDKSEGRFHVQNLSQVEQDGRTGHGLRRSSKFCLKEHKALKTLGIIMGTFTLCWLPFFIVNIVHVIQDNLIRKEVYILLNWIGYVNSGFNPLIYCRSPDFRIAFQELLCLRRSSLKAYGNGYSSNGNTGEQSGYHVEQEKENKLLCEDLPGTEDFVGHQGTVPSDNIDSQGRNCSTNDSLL
Chain of Motilin receptor (O43193 whole entry): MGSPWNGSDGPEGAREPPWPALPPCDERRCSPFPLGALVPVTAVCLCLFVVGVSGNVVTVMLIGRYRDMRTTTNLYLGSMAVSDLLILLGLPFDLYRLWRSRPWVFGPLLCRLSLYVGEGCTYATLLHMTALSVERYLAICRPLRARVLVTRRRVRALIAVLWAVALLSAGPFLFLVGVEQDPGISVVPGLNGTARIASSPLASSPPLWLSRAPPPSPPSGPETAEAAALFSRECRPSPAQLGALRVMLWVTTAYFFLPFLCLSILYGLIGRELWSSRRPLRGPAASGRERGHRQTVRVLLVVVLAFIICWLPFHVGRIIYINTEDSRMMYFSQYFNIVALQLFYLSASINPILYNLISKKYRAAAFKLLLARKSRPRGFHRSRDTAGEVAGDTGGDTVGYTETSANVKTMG
Chain of Histamine H2 receptor (P25021 whole entry): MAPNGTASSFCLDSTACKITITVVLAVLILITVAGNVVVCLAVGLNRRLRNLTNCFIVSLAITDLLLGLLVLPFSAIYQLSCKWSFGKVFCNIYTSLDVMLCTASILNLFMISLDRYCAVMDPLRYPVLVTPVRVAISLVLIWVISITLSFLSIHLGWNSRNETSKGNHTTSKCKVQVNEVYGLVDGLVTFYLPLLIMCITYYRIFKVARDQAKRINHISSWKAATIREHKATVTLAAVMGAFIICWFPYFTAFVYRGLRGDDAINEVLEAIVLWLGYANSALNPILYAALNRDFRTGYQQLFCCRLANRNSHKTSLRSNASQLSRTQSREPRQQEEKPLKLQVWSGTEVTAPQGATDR
Chain of cGMP-inhibited 3',5'-cyclic phosphodiesterase 3A (Q14432 whole entry): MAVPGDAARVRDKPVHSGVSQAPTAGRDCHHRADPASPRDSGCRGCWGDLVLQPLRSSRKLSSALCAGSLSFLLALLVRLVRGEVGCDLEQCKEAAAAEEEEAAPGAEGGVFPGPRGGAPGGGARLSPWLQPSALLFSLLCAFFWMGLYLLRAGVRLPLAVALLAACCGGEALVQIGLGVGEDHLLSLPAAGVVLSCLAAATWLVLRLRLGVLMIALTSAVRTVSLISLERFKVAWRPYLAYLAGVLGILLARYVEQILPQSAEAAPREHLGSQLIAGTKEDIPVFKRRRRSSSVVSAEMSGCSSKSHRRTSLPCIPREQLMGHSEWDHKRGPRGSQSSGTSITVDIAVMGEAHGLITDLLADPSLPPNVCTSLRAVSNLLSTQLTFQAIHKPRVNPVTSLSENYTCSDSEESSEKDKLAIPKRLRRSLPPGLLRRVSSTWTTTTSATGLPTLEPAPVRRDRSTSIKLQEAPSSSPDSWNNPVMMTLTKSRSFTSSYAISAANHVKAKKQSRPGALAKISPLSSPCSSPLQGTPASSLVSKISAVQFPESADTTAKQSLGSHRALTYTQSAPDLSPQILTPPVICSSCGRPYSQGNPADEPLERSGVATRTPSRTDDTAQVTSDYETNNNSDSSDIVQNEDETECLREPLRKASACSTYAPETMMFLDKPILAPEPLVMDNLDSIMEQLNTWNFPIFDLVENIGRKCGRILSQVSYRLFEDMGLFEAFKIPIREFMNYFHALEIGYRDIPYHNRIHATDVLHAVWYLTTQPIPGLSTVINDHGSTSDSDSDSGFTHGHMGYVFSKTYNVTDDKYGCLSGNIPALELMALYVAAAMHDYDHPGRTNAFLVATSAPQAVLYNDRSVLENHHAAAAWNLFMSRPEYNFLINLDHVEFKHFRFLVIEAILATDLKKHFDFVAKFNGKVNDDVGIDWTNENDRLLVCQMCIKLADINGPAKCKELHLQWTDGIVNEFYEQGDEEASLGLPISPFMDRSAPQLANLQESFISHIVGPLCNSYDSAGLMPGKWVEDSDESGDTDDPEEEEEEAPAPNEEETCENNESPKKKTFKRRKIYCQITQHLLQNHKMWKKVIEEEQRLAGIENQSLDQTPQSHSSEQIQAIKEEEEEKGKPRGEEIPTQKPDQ

Row | Structure (SMILES) | AC50 (Adenosine receptor A2a) [µM] | AC50 [1] [µM] | AC50 [2] [µM] | AC50 (B2 bradykinin receptor) [µM] | AC50 (Estrogen receptor) [µM] | AC50 (Histamine H2 receptor) [µM] | AC50 [3] [µM] | AC50 (Motilin receptor) [µM] | AC50 [4] [µM] | AC50 [5] [µM] | AC50 [6] [µM] | AC50 [7] [µM]
1 | Cc1cc(-c2ccccc2)nnc1NCCN1CCOCC1 [MINAPRINE] | > 30 | > 10 | > 10 | > 30 | > 30 | > 10 | > 30 | > 10 | > 10 | > 10 | > 10 | > 30
2 | O=C(OCCN1CCOCC1)c1cccnc1Nc1cccc(C(F)(F)F)c1 [MORNIFLUMATE] | > 30 | > 30 | > 30 | > 30 | > 30 | > 30 | > 30 | > 30 | 12 | 17 | > 30 | > 30
3 | COc1c(C)c2c(c(O)c1C/C=C(\C)CCC(=O)OCCN1CCOCC1)C(=O)OC2 [MYCOPHENOLATE MOFETIL] | > 30 | > 30 | > 30 | > 30 | > 30 | > 30 | > 30 | > 30 | > 30 | > 30 | > 30 | 17
4 | CN1CCCN=C1COC(=O)C(O)(c1ccccc1)C1CCCCC1 (configuration not stated) [OXYPHENCYCLIMINE] | > 10 | > 10 | > 10 | > 10 | > 10 | > 10 | > 30 | > 10 | > 30 | > 30 | > 10 | > 30
5 | CN1CCC2=C(C1)C(c1ccccc1)c1ccccc12 (configuration not stated) [PHENINDAMINE] | > 10 | > 10 | > 10 | > 10 | > 30 | > 10 | > 30 | > 10 | > 30 | > 30 | > 10 | > 30
6 | CC(Cc1ccccc1)NCCC(c1ccccc1)c1ccccc1 (configuration not stated) [PRENYLAMINE] | > 30 | > 10 | 3.5 | > 30 | > 30 | > 30 | > 30 | > 10 | 4.7 | 2.3 | > 10 | > 30
